From US10828301B2, “2,4-pyrimidinediamine compounds and their uses” (Rigel Pharmaceuticals, Inc, priority 2002, dated 2020)

Columns and labels:
[1] = system: cultured human mast cells (CHMC); assay: CHMC low cell density ionomycin activation: tryptase assay; format: cell-based; details: Low Density CHMC, ionomycin activation, tryptase readout, read-out: CHMC Ionomycin Tryptase
[2] = system: cultured human mast cells (CHMC); assay: CHMC low cell density IgE activation: tryptase and LTC4 assays; format: cell-based; details: Low Density CHMC, anti-IgE activation
Outline: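 Degranulation measured after 30 min anti-IgE challenge at 37° C of CHMC plated at 1000-1500 cells/well following 1 h preincubation. Readouts: LTC4 by ELISA on donor-specific diluted supernatants, and tryptase activity from a 30 min room-temperature substrate reaction.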

[3] = tryptase readout, read-out: CHMC anti-IgE Tryptase
[4] = Homo sapiens, Mast cell, tryptase readout, read-out: CHMC anti-IgE Tryptase

IC50 [1] [µM]	IC50 [2, 3] [µM]	IC50 ([1]; Homo sapiens, Mast cell) [µM]	IC50 [2, 4] [µM]	IC50 ([2]; LTC4 readout, read-out: CHMC anti-IgE LTC4) [µM]	Structure (SMILES)
> 10	0.52	–	–	–	COC(=O)Cn1ncc2cc(Nc3ncc(F)c(Nc4ccc(OC(C)C)cc4)n3)ccc21 [Compound R935222, 5-Fluoro-N4-(4-isopropoxyphenyl)-N2-[1-(methoxycarbonyl)methyl-indazoline-5-yl]-2,4-pyrimidinediamine]
–	–	> 10	2.83	–	Nc1nc(Nc2cccc(O)c2)ncc1Br [Compound R935029, 4-Amino-5-bromo-N2-(3-hydroxyphenyl)-2-pyrimidineamine]
–	–	> 10	> 10	–	COC(=O)c1cccc(Nc2ncc(F)c(Nc3cccc(C(=O)OC)c3)n2)c1 [Compound R945035, N2,N4-Bis(3-methoxycarbonylphenyl)-5-fluoro-2,4-pyrimidinediamine]
–	–	> 10	0.339	–	Cc1cc(Nc2ncc(F)c(Nc3ccc4c(c3)OCCO4)n2)cc(C(F)(F)F)c1 [Compound R926895, N4-(3,4-Ethylenedioxyphenyl)-5-fluoro-N2-(3-methyl-5-trifluoromethylphenyl)-2,4-pyrimidinediamine]
–	–	> 10	1.54	–	CCOC(=O)c1cc2cccc(Nc3ncc(F)c(Nc4cc(OC)cc(OC)c4)n3)c2[nH]1 [Compound R926803, N4-(3,5-Dimethoxyphenyl)-N2-(2-ethoxycarbonylindol-7-yl)-5-fluoro-2,4-pyrimidinediamine]
–	–	> 10	> 10	–	Oc1cccc(Nc2nc(NCc3ccc4c(c3)CCO4)ncc2F)c1 [Compound R950213, N2-[2,3-Dihydrobenzo[b]furan-5-ylmethyl]-5-fluoro-N4-(3-hydroxyphenyl)-2,4-pyrimidinediamine]
–	–	> 10	2.22	–	CCOC(=O)C=Nc1cccc(Nc2ncc(F)c(Nc3cccc(N=CC(=O)OCC)c3)n2)c1 [Compound R950184, N2,N4-Bis(3-ethoxycarbonylmethyleneaminophenyl)-5-fluoro-2,4-pyrimidinediamine]
–	–	> 10	> 10	–	Fc1cnc(NC(c2ccccc2)c2ccccc2)nc1NC(c1ccccc1)c1ccccc1 [Compound R935005, N2,N4-Bis(diphenylmethyl)-5-fluoro-2,4-pyrimidinediamine]
–	–	> 10	> 10	–	COC(=O)c1cc(Nc2ncc(F)c(Nc3ccc(O)c(C(=O)OC)c3)n2)ccc1O [Compound R945043, N2,N4-Bis(4-hydroxy-3-methoxycarbonylphenyl)-5-fluoro-2,4-pyrimidinediamine]
–	–	> 10	10	–	Oc1ccc(Nc2ncc(F)c(Nc3ccc(O)cc3F)n2)c(F)c1 [Compound R926683, N2,N4-Bis(2-fluoro-4-hydroxyphenyl)-5-fluoro-2,4-pyrimidinediamine]
–	–	> 10	> 10	–	CCOC(=O)c1cnc(Nc2cccc(O)c2)nc1NOCc1ccccc1 [Compound R925824, N4-Benzyloxy-5-ethoxycarbonyl-N2-(3-hydroxyphenyl)-2,4-pyrimidinediamine]
–	–	> 10	0.284	–	CNC(=O)C1Cc2cc(Nc3ncc(F)c(Nc4ccc(OC(F)(F)F)c(Cl)c4)n3)ccc2O1 (stereo not shown) [Compound R926954, N4-(3-Chloro-4-trifluoromethoxyphenyl)-5-fluoro-N2-[2,3-dihydro-2-[(N-methylamino)carbonyl]benzofuran-5-yl]-2,4-pyrimidinediamine]
> 10	> 10	–	–	–	COc1ccc(Nc2ncc([N+](=O)[O-])c(Nc3ccc(OC)c(OC)c3)n2)cc1OC [Compound R940089, N2,N4-Bis-(3,4-dimethoxypenyl)-5-nitro-2,4-pyrimidinediamine]
–	–	> 10	> 10	–	C=CCNc1ncc(F)c(Nc2ccc3c(c2)OCCO3)n1 [Compound R925823, N2-Allyl-N4-(3,4-ethylenedioxyphenyl)-5-fluoro-2,4-pyrimidinediamine]
–	–	> 10	2.45	–	COC(=O)Cc1ccc(Nc2ncc(F)c(Nc3ccc(CC(=O)OC)cc3)n2)cc1 [Compound R926605, N2,N4-Bis[4-(methoxycarbonylmethyl)phenyl]-5-fluoro-2,4-pyrimidinediamine]
–	–	> 10	> 10	–	CCOC(=O)C=Nc1ccc(Nc2ncc(C(=O)OCC)c(Nc3ccc(N=CC(=O)OCC)cc3)n2)cc1 [Compound R926331, N2,N4-Bis(4-ethoxycarbonylmethyleneaminophenyl)-5-ethoxycarbonyl-2,4-pyrimidinediamine]
–	–	> 10	> 10	–	CCCCOc1ccc(Nc2cc(Nc3ccc4c(c3)OCCO4)ncc2F)cc1 [Compound R920671, N4-(4-n-Butyloxyphenyl)-N2-(3,4-ethylenedioxyphenyl)-5-fluoro-2,4-pyridinediamine]
–	–	> 10	1.88	–	Fc1cnc(Nc2ccc3c(c2)OCCO3)nc1Nc1ccc(N2CCN(Cc3ccccc3)CC2)cc1 [Compound R945155, N4-[4-(N-Benzylpiperazino)phenyl]-N2-(3,4-ethylenedioxyphenyl)-5-fluoro-2,4-pyrimidinediamine]

IC50 [1] [µM]	IC50 [2, 3] [µM]	IC50 ([1]; Homo sapiens, Mast cell) [µM]	IC50 [2, 4] [µM]	IC50 ([2]; LTC4 readout, read-out: CHMC anti-IgE LTC4) [µM]	Structure (SMILES)
–	–	> 10	2.2	–	CC(C)Oc1ccc(Nc2ncc(F)c(Nc3ccc(OC(C)C)cc3)n2)cc1 [Compound R926701, N2,N4-Bis(4-isopropoxyphenyl)-5-fluoro-2,4-pyrimidinediamine]
–	–	> 10	0.673	–	OCCOc1cccc(Nc2nc(Nc3cccc(O)c3)ncc2F)c1 [Compound R935170, 5-Fluoro-N4-[3-(2-hydroxyethoxy)phenyl]-N2-(3-hydroxyphenyl)-2,4-pyrimidinediamine]
–	–	8.8	1.18	–	Clc1nc(Nc2ccc3c(c2)OCCO3)nc(Nc2ccc3c(c2)OCCO3)c1Cl [Compound R926467, N2,N4-Bis(3,4-ethylenedioxyphenyl)-5,6-dichloro-2,4-pyrimidinediamine]
–	–	> 10	> 10	–	Fc1cnc(Nc2ccc3c(c2)OC(F)(F)O3)nc1Nc1ccc2c(c1)OCCO2 [Compound R926386, N2-(2,2-Difluorobenzodioxol-5-yl)-N4-(3,4-ethylenedioxyphenyl)-5-fluoro-2,4-pyrimidinediamine]
–	–	> 10	0.049	–	COC(=O)C1Cc2cc(Nc3ncc(F)c(Nc4ccc(OC(F)(F)F)c(Cl)c4)n3)ccc2O1 (stereo not shown) [Compound R926953, N4-(3-Chloro-4-trifluoromethoxyphenyl)-5-fluoro-N2-[2,3-dihydro-2-(methoxycarbonyl)benzofuran-5-yl]-2,4-pyrimidinediamine]
–	–	> 10	1.69	–	OB(O)c1cccc(Nc2nc(Nc3cccc(O)c3)ncc2F)c1 [Compound R926755, 5-Fluoro-N4-(3-dihydroxyborylphenyl)-N2-(3-hydroxyphenyl)-2,4-pyrimidinediamine]
–	–	> 10	1.22	–	OCC(O)COc1ccc(Nc2ncc(F)c(Nc3cccc(O)c3)n2)cc1 (stereo not shown) [Compound R935180, N2-[4-(2,3-Dihydroxypropoxy)phenyl]-5-fluoro-N4-(3-hydroxyphenyl)-2,4-pyrimidinediamine]
–	–	> 10	3.2	–	Cc1cc(Nc2ncc(F)c(Nc3ccc4c(c3)OCCO4)n2)c(C)cc1O [Compound R926792, N2-(2,5-Dimethyl-4-hydroxyphenyl)-N4-(3,4-ethylenedioxyphenyl)-5-fluoro-2,4-pyrimidinediamine]
–	–	> 10	4.75	–	Oc1cccc(Nc2ncc(F)c(Nn3cccc3)n2)c1 [Compound R935278, 5-Fluoro-N2-(3-hydroxyphenyl)-N4-(1H-pyrrol-1-yl)-2,4-pyrimidinediamine]
–	–	> 10	> 10	–	Cc1ccc(-c2ccccc2)cc1Nc1ccnc(Nc2cc(-c3ccccc3)ccc2C)n1 [Compound R925807, N2,N4-Bis(2-methyl-5-phenylphenyl)-2,4-pyrimidinediamine]
–	–	> 10	1.43	–	COC(=O)c1ccc(Nc2ncc(F)c(Nc3ccc(C(=O)OC)c(OC)c3)n2)cc1OC [Compound R945065, N2,N4-Bis(3-methoxy-4-methoxycarbonylphenyl)-5-fluoro-2,4-pyrimidinediamine]
8.3	0.68	–	–	0.495	COC(=O)c1cc2cc(Nc3ncc(F)c(Nc4ccc5[nH]c(C(=O)OC)cc5c4)n3)ccc2[nH]1 [Compound R926593]
–	–	> 10	> 10	–	Cc1cnc(Nc2ccccc2-c2ccccc2)nc1Nc1ccccc1-c1ccccc1 [Compound R926404, N2,N4-Bis(2-phenylphenyl)-5-methyl-2,4-pyrimidinediamine]
–	–	> 10	7.37	–	Fc1cnc(Nc2cccc(-c3nnn[nH]3)c2)nc1Nc1ccc2c(c1)OCCO2 [Compound R926843, 5-Fluoro-N4-(3,4-ethylenedioxyphenyl)-N2-[3-(tetrazol-5-yl)phenyl]-2,4-pyrimidinediamine]
–	–	9.4	3.1	–	Clc1cc(Nc2ccc3c(c2)OCCO3)nc(Nc2ccc3c(c2)OCCO3)n1 [Compound R926245, N2,N4-Bis(3,4-ethylenedioxyphenyl)-6-chloro-2,4-pyrimidinediamine]
–	–	> 10	0.673	–	N#Cc1cnc(Nc2ccc3c(c2)OCCO3)nc1Nc1ccc2c(c1)OCCO2 [Compound R925773, N2,N4-Bis(3,4-ethylenedioxyphenyl)-5-cyano-2,4-pyrimidinediamine]
–	–	> 10	> 10	–	CCCCCCOc1ccc(Nc2cc(Nc3ccc4c(c3)OCCO4)ncc2F)cc1 [Compound R920672, N4-(4-n-Hexyloxyphenyl)-N2-(3,4-ethylenedioxyphenyl)-5-fluoro-2,4-pyridinediamine]
–	–	> 10	9.6	–	Oc1cccc(Nc2cc(Cl)nc(Nc3cccc(O)c3)n2)c1 [Compound R926408, N2,N4-Bis(3-hydroxyphenyl)-6-chloro-2,4-pyrimidinediamine]
